Values quoted from earlier work as cited in patent US20110262436A1, “TREATMENT METHOD” (Genentech, Inc., priority 2008, published 2011).

Tested on: advanced, treatment-refractory NSCLC
Details: phase III trial; cited from earlier work

SMILES: C#Cc1cccc(Nc2ncnc3cc(OCCOC)c(OCCOC)cc23)c1 [erlotinib, N-(3-ethynylphenyl)-6,7-bis(2-methoxyethoxy)-4-quinazolinamine]
- Survival, erlotinib monotherapy: significantly prolonged survival
